In one assay the test system is peptide-pulsed C1R-A33. Briefly: In vitro CTL induction, IFN-gamma ELISPOT assay (HLA-A*3303). Particulars: CTLs induced with peptide-pulsed DCs from HLA-A*3303-positive volunteers; day 21; vs peptide-pulsed C1R-A33, compared with unpulsed control. Type of assay: cell-based, human. The procedure:
C1R (C1R-A33) that stably expresses HLA-A*3303 was used as a stimulator cell. A cDNA encoding the open-reading frame of HLA-A*3303 was amplified by PCR and cloned into an expression vector. C1R cells were transfected with the expression vector, and then selected using G418 (Invitrogen) for two weeks. The G418-selected cells were seeded into wells containing G418-added culture medium in a 96-well plate, and further cultured for 30 days. The exogenous HLA-A*3303 expression in C1R cells was verified by flow cytometric analysis.
(§1) Monocyte-derived dendritic cells (DCs) were used as the antigen-presenting cell to induce a cytotoxic T lymphocyte (CTL) response against peptides presented on human leukocyte antigens (HLAs). As described in the other sections, DCs were generated in vitro (Nakahara S et al., Cancer Res 2003, 63(14): 4112-8). Specifically, peripheral-blood mononuclear cells isolated from healthy volunteers (HLA-A*3303-positive) with the Ficoll-Paque plus solution (Pharmacia) were separated by attaching to plastic tissue culture dishes (Becton Dickinson) and concentrated as a monocyte fraction. The monocyte-concentrated population was cultured in the presence of 1000 IU/ml granulocyte macrophage colony-stimulating factor (R&D System) and 1000 IU/ml interleukin(IL)-4 (R&D System) in an AIM-V medium (Invitrogen) containing 2% heat-inactivated autologous serum (AS). After seven days of culturing, the cytokine-induced DCs were pulsed with 20 micro-g/ml each of the synthesized peptides in an AIM-V medium at 37 degrees C. for three hours in the presence of 3 micro-g/ml beta 2-microglobulin. The generated cells appeared to express on their cell surface DC-associated molecules such as CD80, CD83, CD86 and HLA class II (data not shown). Next, these peptide-pulsed DCs were inactivated by X-ray irradiation (20 Gy), and mixed in a 1:20 ratio with autologous CD8^+ T cells obtained by positive selection using the CD8 Positive Isolation Kit (Dynal). These culture products were seeded in a 48-well plate (Corning). Each well was made to contain 1.5×10^4 peptide-pulsed DCs, 3×10^5 CD8^+ T cells and 10 ng/ml IL-7 (R&D System) in 0.5 ml of the AIM-V/2% AS medium. Three days later, these culture products were added with a final concentration of 20 IU/ml IL-2 (CHIRON). On day 7 and day 14, T cells were further stimulated with peptide-pulsed autologous DCs. The DCs were prepared every time by the same method as above. On day 21, after the third peptide stimulation, CTLs were examined against the peptide-pulsed C1R-A33 cell by a human interferon (IFN)-gamma enzyme-linked immunospot (ELISPOT) assay (Tanaka H et al., Br J Cancer 2001, 84(1): 94-9; Umano Y et. al., Br J Cancer 2001, 84(8): 1052-7; Uchida N et al., Clin Cancer Res 2004, 10(24): 8577-86; Suda T et al., Cancer Sci 2006, 97(5): 411-9; Watanabe T et al., Cancer Sci 2005, 96(8): 498-506).
Specifically, peptide-pulsed C1R-A33 (1×10^4 cells/well) was prepared as the stimulator cell. The induced CTLs, i.e., CTL lines and CTL clones, were used as the responder cell. The IFN-gamma ELISPOT assay and IFN-gamma ELISA were performed according to the manufacturer's manual.

The subject of the next assay is peptide-pulsed C1R-A03. Briefly: In vitro CTL induction, IFN-gamma ELISPOT assay (HLA-A*0301). It is filed as cell-based, human. Particulars: CTLs induced with peptide-pulsed DCs from HLA-A*0301-positive volunteers; day 21; vs peptide-pulsed C1R-A03, compared with unpulsed control. On the procedure:
C1R (C1R-A03) that stably expresses HLA-A*0301 was used as a stimulator cell. A cDNA encoding the open-reading frame of HLA-A*0301 was amplified by PCR and cloned into an expression vector. C1R cells were transfected with the expression vector, and then selected using G418 (Invitrogen) for two weeks. The G418-selected cells were seeded into wells containing G418-added culture medium in a 96-well plate, and further cultured for 30 days. The exogenous HLA-A*0301 expression in C1R cells was verified by flow cytometric analysis.
as §1, with “(HLA-A*0301-positive)” for “(HLA-A*3303-positive)”, “On day 21, after the third peptide stimulation, CTLs were examined against the peptide-pulsed C1R-A33 cell by a human interferon (IFN)-gamma enzyme-linked immunospot (ELISPOT) assay (Tanaka H et al., Br J Cancer 2001, 84(1): 94-9; Umano Y et. al., Br J Cancer 2001, 84(8): 1052-7; Uchida N et al., Clin Cancer Res 2004, 10(24): 8577-86; Suda T et al., Cancer Sci 2006, 97(5): 411-9; Watanabe T et al., Cancer Sci 2005, 96(8): 498-506).” left out

For “ILAHNNFVGR (a peptide derived from KOC1) [SEQ ID NO: 52]”, the “peptide-specific CTL activity (IFN-gamma production), ELISPOT” value in the assay with peptide-pulsed C1R-A33 and with peptide-pulsed C1R-A03 was “potent IFN-gamma production” in each case.
For the sequence “TQFVGAIIGK (a peptide derived from KOC1) [SEQ ID NO: 30]”, the “peptide-specific CTL activity (IFN-gamma production), ELISPOT” value with peptide-pulsed C1R-A03 was “potent IFN-gamma production”.

Source of the values: patent US10576102B2, “KOC1-derived peptide and vaccine including same” (ONCOTHERAPY SCIENCE, INC., priority 2014, dated 2020).
